The values that follow are results of earlier work, collected in PMC11547388, “Toxicokinetics and Tissue Distribution of the Hepatotoxic Triterpenoid Saponin Pterocephin A in Rats Using the Ultra-Performance Liquid Chromatography–Tandem Mass Spectrometry (UPLC-MS/MS) Method” (Molecules, 2024).

On the set-up of the data set: method as in PMID 37253396. Particulars: in vivo, HPLC-QQQ-MS/MS.

The structures appear in SMILES notation.

For `C=C(C)[C@@H]1CC[C@]2(C(=O)O[C@@H]3O[C@H](CO[C@@H]4O[C@H](CO)[C@@H](O[C@@H]5O[C@@H](C)[C@H](O)[C@@H](O)[C@H]5O)[C@H](O)[C@H]4O)[C@@H](O)[C@H](O)[C@H]3O)CC[C@]3(C)[C@H](CC[C@@H]4[C@@]5(C)CC[C@H](O[C@@H]6OC[C@H](O)[C@H](O)[C@H]6O[C@@H]6O[C@@H](C)[C@H](O)[C@@H](O)[C@H]6O)[C@@](C)(CO)[C@@H]5CC[C@]43C)[C@@H]12` [AB4, anemoside B4], the bioavailability entry is on record as “less than 1%”.
